Reference: patent US12052991B2, “Substituted pyridinyloxybenzenes and salts thereof and use thereof as herbicidal agents” (Bayer Aktiengesellschaft, priority 2018, dated 2024)

What was measured:
Type in all cases: in vivo
[1] = test system: Amaranthus retroflexus (AMARE); assay: Herbicidal pre-emergence action, test C (Table C6); details: visual scoring after about 3 weeks, 100% = plants have died, 0% = like control plants
Procedure, shortened: (§1)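 % herbicidal effect, visual, vs untreated; 0% = as control, 100% = plants dead. Scored ~3 wk post-application. Rate 1280 or 320 g/ha onto covering soil pre-emergence.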

Stellaria media (STEME) [2] = assay: Herbicidal pre-emergence action, test C (Table C8); details: visual scoring after about 3 weeks, 100% = plants have died, 0% = like control plants
Procedure, shortened: as §1

Bassia scoparia (KCHSC) [3] = assay: Herbicidal pre-emergence action, test C (Table C11); details: dosage 1280 g/ha, visual scoring vs untreated controls
Text: (§2) Seeds of mono- and dicotyledonous weed plants were placed in plastic pots in sandy loam soil (doubly sown with one species each of mono- or dicotyledonous weed plants per pot) and covered with soil. The compounds of the invention, formulated in the form of wettable powders (WP) or as emulsion concentrates (EC), were then applied onto the surface of the covering soil as aqueous suspension or emulsion with addition of 0.5% additive at a water application rate of 600 liters per hectare (converted). After the treatment, the pots were placed in a greenhouse and kept under good growth conditions for the test plants. After about 3 weeks, the effect of the preparations was scored visually in comparison with untreated controls as percentages. For example, 100% activity=the plants have died, 0% activity=like control plants. Tables C1 to C12 below show the effects of selected compounds of the general formula (I) according to Table 1 on various harmful plants and an application rate corresponding to 1280 or 320 g/ha, which were obtained by the experimental procedure mentioned above.

[4] = test system: harmful plants ABUTH, AMARE, ECHCG, LOLRI, MATIN, POAAN, SETVI, STEME, ALOMY, DIGSA, KCHSC and VERPE; assay: Herbicidal post-emergence action, summary of Tables B1-B12; details: application rate of 1280 or 320 g of active ingredient per hectare; summary in words
Procedure, shortened: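 Greenhouse weeds in sandy loam treated post-emergence at the one-leaf stage, 2–3 weeks after sowing, with WP or EC formulations sprayed with 0.5% additive at 600 L/ha water, 1280 or 320 g/ha. Damage rated visually after about 3 weeks versus untreated controls (0% = like control, 100% = dead).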

[5] = test system: Abutilon theophrasti (ABUTH); assay: Herbicidal pre-emergence action, test C (Table C5); details: visual scoring after about 3 weeks, 100% = plants have died, 0% = like control plants
Procedure, shortened: as §1

Veronica persica (VERPE) [6] = assay: Herbicidal post-emergence action (Table B12); details: visual rating about 3 weeks after treatment, 100% = plants have died, 0% = like control plants
Procedure, shortened: (§3)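 Greenhouse pot-grown weeds in sandy loam, sprayed at the one-leaf stage (2–3 weeks post-sowing) with WP or EC formulations plus 0.5% additive at 600 l/ha water, at 1280 or 320 g/ha. Visual % activity versus untreated controls rated about 3 weeks later (100% = dead).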

[7] = test system: harmful plants ABUTH, AMARE, ECHCG, LOLRI, MATIN, POAAN, SETVI, STEME, ALOMY, DIGSA, KCHSC and VERPE; assay: Herbicidal pre-emergence action (test C), summary of Tables C1-C12; details: application rate of 1280 or 320 g of active ingredient per hectare; summary in words
Procedure, shortened: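 Pre-emergence pot test in sandy loam: WP or EC formulations were sprayed onto the covering soil with 0.5% additive at 600 L/ha water, at 1280 or 320 g/ha. Plants were kept in the greenhouse, and activity was rated visually about 3 weeks later as % versus untreated controls (100% = dead).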

[8] = test system: Digitaria sanguinalis (DIGSA); assay: Herbicidal pre-emergence action, test C (Table C10); details: visual scoring after about 3 weeks, 100% = plants have died, 0% = like control plants
Procedure, shortened: as §1

[9] = test system: Abutilon theophrasti (ABUTH); assay: Herbicidal post-emergence action (Table B5); details: rated visually after about 3 weeks, 100% = plants have died, 0% = like control plants
Procedure, shortened: as §3

Poa annua (POAAN) [10] = assay: Herbicidal pre-emergence action, test C (Table C3); details: visual scoring after about 3 weeks, 100% = plants have died, 0% = like control plants
Procedure, shortened: as §1

Bassia scoparia (KCHSC) [11] = assay: Herbicidal post-emergence action (Table B11); details: visual rating about 3 weeks after treatment, 100% = plants have died, 0% = like control plants
Procedure, shortened: as §3

Veronica persica (VERPE) [12] = assay: Herbicidal pre-emergence action, test C (Table C12); details: visual scoring vs untreated controls
Procedure, shortened: as §1

Poa annua (POAAN) [13] = assay: Herbicidal post-emergence action (Table B3); details: rated visually after about 3 weeks, 100% = plants have died, 0% = like control plants
Procedure, shortened: as §3

Stellaria media (STEME) [14] = assay: Herbicidal post-emergence action (Table B8); details: visual rating about 3 weeks after treatment, 100% = plants have died, 0% = like control plants
Procedure, shortened: as §3

Setaria viridis (SETVI) = assay: Herbicidal pre-emergence action, test C (Table C4); details: visual scoring after about 3 weeks, 100% = plants have died, 0% = like control plants
Procedure, shortened: as §1

[15] = test system: Amaranthus retroflexus (AMARE); assay: Herbicidal post-emergence action (Table B6); details: visual rating about 3 weeks after treatment, 100% = plants have died, 0% = like control plants
Procedure, shortened: as §3

[16] = test system: Echinochloa crus-galli (ECHCG); assay: Herbicidal pre-emergence action, test C (Table C1); details: dosage 1280 g/ha; visual scoring after about 3 weeks; 100% = plants have died, 0% = like control plants
Text: as §2

[17] = test system: Digitaria sanguinalis (DIGSA); assay: Herbicidal post-emergence action (Table B10); details: visual rating about 3 weeks after treatment, 100% = plants have died, 0% = like control plants
Protocol: (§4) Seeds of mono- and dicotyledonous weed plants were placed in plastic pots in sandy loam soil (doubly sown with in each case one species of mono- or dicotyledonous weed plants per pot), covered with soil and cultivated in a greenhouse under controlled growth conditions. 2 to 3 weeks after sowing, the test plants were treated at the one-leaf stage. The compounds of the invention, formulated in the form of wettable powders (WP) or as emulsion concentrates (EC), were applied onto the green parts of the plants as aqueous suspension or emulsion with addition of 0.5% additive at a water application rate of 600 liters per hectare (converted). After the test plants had been kept in the greenhouse under optimum growth conditions for about 3 weeks, the activity of the preparations was rated visually in comparison to untreated controls. For example, 100% activity=the plants have died, 0% activity=like control plants. Tables B1 to B12 below show the effects of selected compounds of the general formula (I) according to Table 1 on various harmful plants and an application rate corresponding to 1280 or 320 g/ha, which were obtained by the experimental procedure mentioned above.

[18] = test system: Alopecurus myosuroides (ALOMY); assay: Herbicidal pre-emergence action, test C (Table C9); details: visual scoring after about 3 weeks, 100% = plants have died, 0% = like control plants
Text: as §2

[19] = test system: Matricaria inodora (MATIN); assay: Herbicidal pre-emergence action, test C (Table C7); details: visual scoring after about 3 weeks, 100% = plants have died, 0% = like control plants
Procedure, shortened: as §1

[20] = test system: Alopecurus myosuroides (ALOMY); assay: Herbicidal post-emergence action (Table B9); details: rated visually after about 3 weeks, 100% = plants have died, 0% = like control plants
Protocol: as §4

[21] = test system: Echinochloa crus-galli (ECHCG); assay: Herbicidal post-emergence action (Table B1); details: 1280 g/ha; rated visually after about 3 weeks; 100% = plants have died, 0% = like control plants
Protocol: as §4

Lolium rigidum (LOLRI) = assay: Herbicidal pre-emergence action, test C (Table C2); details: dosage 1280 g/ha; visual scoring after about 3 weeks; 100% = plants have died, 0% = like control plants
Text: as §2

Row | SMILES | Pre-emergence action against Amaranthus retroflexus (AMARE) ([1]; dosage 320 g/ha) | Pre-emergence action against Amaranthus retroflexus (AMARE) ([1]; dosage 1280 g/ha) | Pre-emergence action against Stellaria media (STEME) (Stellaria media (STEME) [2]; dosage 1280 g/ha) | herbicidal activity against the harmful plants of Tables B1-B12 in post-emergence treatment [4] | Post-emergence action against Veronica persica (VERPE) (Veronica persica (VERPE) [6]; dosage 320 g/ha) | Post-emergence action against Veronica persica (VERPE) (Veronica persica (VERPE) [6]; dosage 1280 g/ha) | herbicidal activity against the harmful plants of Tables C1-C12 in pre-emergence treatment [7] | Pre-emergence action against Digitaria sanguinalis (DIGSA) ([8]; dosage 1280 g/ha) | Post-emergence action against Abutilon theophrasti (ABUTH) ([9]; 320 g/ha) | Post-emergence action against Abutilon theophrasti (ABUTH) ([9]; 1280 g/ha) | Pre-emergence action against Poa annua (POAAN) (Poa annua (POAAN) [10]; dosage 320 g/ha) | Pre-emergence action against Poa annua (POAAN) (Poa annua (POAAN) [10]; dosage 1280 g/ha) | Post-emergence action against Bassia scoparia (KCHSC) (Bassia scoparia (KCHSC) [11]; dosage 1280 g/ha) | Pre-emergence action against Veronica persica (VERPE) (Veronica persica (VERPE) [12]; dosage 1280 g/ha) | Post-emergence action against Poa annua (POAAN) (Poa annua (POAAN) [13]; 320 g/ha) | Post-emergence action against Poa annua (POAAN) (Poa annua (POAAN) [13]; 1280 g/ha) | Post-emergence action against Stellaria media (STEME) (Stellaria media (STEME) [14]; dosage 320 g/ha) | Post-emergence action against Stellaria media (STEME) (Stellaria media (STEME) [14]; dosage 1280 g/ha) | Pre-emergence action against Setaria viridis (SETVI) (Setaria viridis (SETVI); dosage 1280 g/ha) | Post-emergence action against Amaranthus retroflexus (AMARE) ([15]; dosage 1280 g/ha) | other results
1 | Cn1nc(-c2c(F)cccc2Oc2ncc(Cl)cc2F)cc1C(F)F [Example 1-61] | 100% | 100% | 100% | very good herbicidal activity | 100% | 100% | very good herbicidal activity | 100% | 100% | 100% | 90% | 100% | 100% | 100% | 100% | 100% | 100% | 100% | 90% | 100% | Pre-emergence action against Bassia scoparia (KCHSC) (Bassia scoparia (KCHSC) [3]): 100%; Pre-emergence action against Abutilon theophrasti (ABUTH) ([5]; dosage 1280 g/ha): 100%; Post-emergence action against Bassia scoparia (KCHSC) (Bassia scoparia (KCHSC) [11]; dosage 320 g/ha): 100%; Post-emergence action against Amaranthus retroflexus (AMARE) ([15]; dosage 320 g/ha): 100%
2 | Cc1cccc(Oc2ncc(Cl)cc2F)c1-c1cc(C(F)F)on1 [Example 1-10] | 100% | 100% | 100% | very good herbicidal activity | 100% | 100% | very good herbicidal activity | 100% | 90% | 100% | 100% | 100% | 100% | 100% | 100% | 100% | 100% | 100% | 100% | 100% | Pre-emergence action against Echinochloa crus-galli (ECHCG) [16]: 90%; Pre-emergence action against Stellaria media (STEME) (Stellaria media (STEME) [2]; dosage 320 g/ha): 100%; Post-emergence action against Digitaria sanguinalis (DIGSA) ([17]; dosage 320 g/ha): 100%; Post-emergence action against Digitaria sanguinalis (DIGSA) ([17]; dosage 1280 g/ha): 100%; Pre-emergence action against Alopecurus myosuroides (ALOMY) ([18]; dosage 320 g/ha): 100%; Pre-emergence action against Alopecurus myosuroides (ALOMY) ([18]; dosage 1280 g/ha): 100%; Pre-emergence action against Abutilon theophrasti (ABUTH) ([5]; dosage 320 g/ha): 100%; Pre-emergence action against Abutilon theophrasti (ABUTH) ([5]; dosage 1280 g/ha): 100%; Pre-emergence action against Digitaria sanguinalis (DIGSA) ([8]; dosage 320 g/ha): 100%; Pre-emergence action against Matricaria inodora (MATIN) ([19]; dosage 320 g/ha): 100%; Pre-emergence action against Matricaria inodora (MATIN) ([19]; dosage 1280 g/ha): 100%; Post-emergence action against Alopecurus myosuroides (ALOMY) ([20]; 320 g/ha): 100%; Post-emergence action against Alopecurus myosuroides (ALOMY) ([20]; 1280 g/ha): 100%; Post-emergence action against Echinochloa crus-galli (ECHCG) [21]: 100%; Pre-emergence action against Veronica persica (VERPE) (Veronica persica (VERPE) [12]; dosage 320 g/ha): 100%; Pre-emergence action against Lolium rigidum (LOLRI) (Lolium rigidum (LOLRI)): 90%; Pre-emergence action against Setaria viridis (SETVI) (Setaria viridis (SETVI); dosage 320 g/ha): 100%
3 | Fc1cccnc1Oc1ccccc1-c1cc(C(F)F)no1 [Example 1-47] | 100% | 100% | 100% | very good herbicidal activity | 100% | 100% | very good herbicidal activity | 90% | 90% | 100% | 100% | 100% | 90% | 100% | 100% | 100% | 100% | 100% | 90% | 100% | Pre-emergence action against Stellaria media (STEME) (Stellaria media (STEME) [2]; dosage 320 g/ha): 100%; Pre-emergence action against Bassia scoparia (KCHSC) (Bassia scoparia (KCHSC) [3]): 90%; Post-emergence action against Bassia scoparia (KCHSC) (Bassia scoparia (KCHSC) [11]; dosage 320 g/ha): 90%; Pre-emergence action against Veronica persica (VERPE) (Veronica persica (VERPE) [12]; dosage 320 g/ha): 90%; Post-emergence action against Amaranthus retroflexus (AMARE) ([15]; dosage 320 g/ha): 90%
